# Source: patent US10513529B2, “1,2,4-triazolo-[3,4-b]-1,3,4-thiadiazole derivatives” (GALENICA S.A., priority 2016, dated 2019)
# pIC50: −log10 of the molar value.
# Experiments:
# Format in all cases: cell-based
# [1] = system: UWB1.289 + BRCA1 human ovarian cancer cell line; experiment: MTT cytostatic-cytotoxic activity, UWB1.289+BRCA1; details: for GI50 / pIC50: Homo sapiens, UWB1289, UWB1.289+BRCA1, 48 h treatment; for pIC50: kills 50% of the cells; for TGI: UWB1.289+BRCA1, 48 h treatment
# Method: Human ovarian adenocarcinoma cells, derived from UBWB1,289, in which the presence of the BRCA1 gene has been restored. […] They are not susceptible to ionizing radiation and radioimmune chemical agents (e.g., alkylating agents). Also, UWB1.289 cells have mutated the p53 tumor suppressor gene, and are positive for the expression of cytokeratin 7 (CK-7), calretinin and Wilms' tumor protein (WT).
# (§1) All cancer cell lines are stored in a liquid nitrogen tank in 2.5 ml cryovials (Corning-Costar, Cambridge, Mass.). DMSO (dimethylsulfoxide) act as a cryoprotectant and is added to prevent the formation of ice crystals which may lyse the cells. The Cells were grown as monolayer cultures in T-75 flasks (Corning-Costar, Cambridge, Mass.) and maintained at 37° C. in 5% CO2 incubator & 100% relative humidity. The cultures medium used are McCoy's 5a Medium, supplemented with 10% fetal bovine serum (FBS, Gibco) and 1% antibiotics (100 IU/ml penicillin/100 µg/ml streptomycin), sterilized by filtration (Corning-Costar filter, diameter 0.2 μm, RPMI-1640 and 50% RPMI-1640 (Catalog No 30-2001) plus 50% Mammary Epithelial Growth Medium (MEGM), supplemented with 10% fetal bovine serum (FBS, Gibco) and 1% antibiotics (100 IU/ml penicillin/100 μg/ml streptomycin). The passage is performed every 3-4 to days as follows: Cells are washed with sterile PBS (Phosphate buffered saline): 8 g/l NaCl, 0,2 g/l KCl, 1,15 g/l Na2HPO4καl 0,2 g/l KH2PO4. pH:7,4), add 2-3 ml 0.05% trypsin (Gibco 1:250) and 0.02% EDTA to cover the monolayer and incubate the flask at 3TC for 5-10 minutes. Trypsin-EDTA, is used mainly to detach the cells from the flask and prepare a single cell suspension. Finally, the number of cells can be determined by direct counting using a Neubauer chamber and cell viability is determined by staining the cells with trypan blue.
# (§2) In the experimental study the in vitro effect of the compound type (I) was evaluated against ovarian cancer cell lines UWB1.289, UWB1.289+BRCA1 Kai SKOV-3.The cells were plated in 96-well plate (MTP) at a density of 1×10^4cells/m1 per well and maintained for 72 h at 3TC in a 5% CO2 incubator and grown as monolayers. The selection of the initial number of cells was made according to the rate of proliferation of the cell line, in order the cells throughout the experiment are in an exponential (log) growth phase. After 24 hours, cells were treated with 1-100 μmol/l of the tested compounds for 48 h. Experiments were carried out using triplicate wells. The viability of cultured cells was estimated by an (3-(4,5-imethylthiazol-2-yl)-2,5-diphenyltetrazolium bromide (MTT) metabolic assay as described previously (Finlay G J, Wilson W R and Baguley B C: Comparison of in vitro activity of cytotoxic drugs towards human carcinoma and leukaemia cell lines. Eur J Cancer Clin Oncol 22: 655-662, 1986; Alley M C, Scudiero D A, Monks A, Hursey M L, Czerwinski M J, Fine D L, et al. Feasibility of drug screening with panels of human tumor cell lines using a microculture tetrazolium assay. Cancer Res 1988; 48:589-601). MTT (Sigma, St Louis, Mo., USA) was dissolved in PBS in a concentration of 5 mg/ml, filter sterilized, and stored at 4° C. MTT (50 μl of stock solution) was added to each culture and incubated for 3 h at 3TC to allow metabolization. Formazan crystals were solubilized by DMSO (100 μl). Absorbance of the converted dye was measured at a wavelength of 540nm on ELISA reader (BioTek, Winooski, Vt., USA).
# (§3) GI50: The mean concentration that causes 50% inhibition of cell growth (Growth Inhibition 50%). The calculation of the value is based on the formula: (Tt72x)−(Ct24)/(Ct72)-(Ct24)×100=50
# (§4) TGI: The mean concentration that causes 100% inhibition of cell growth (Total Growth Inhibition). The value is calculated according to the formula: (Tt72x)−(Ct24)/(Ct72)−(Ct24)×100=0
# (§5) IC50: The mean concentration that kills 50% of the cells (Inhibition Concentration 50%). The value is calculated according to the formula: (Tt72x)−(Ct24)/(Ct24)×100=[…]
# [2] = system: OVCAR-3 human ovarian cancer cell line; experiment: MTT cytostatic-cytotoxic activity, OVCAR-3; details: OVCAR-3, 48 h treatment; for GI50 / pIC50: Homo sapiens; for pIC50: kills 50% of the cells
# Method: (§6) SKOV-3 (SKOV-3) (ATCC HTB 77) and OVCAR-3 (ATCC® HTB-161™)
# (§7) Human ovarian adenocarcinoma cells, which are grown easily in monolayer culture with epithelial-like morphology. SKOV-3 are resistant to tumor necrosis factor (TNF) and to other cytotoxic drugs such as cisplatin, and adriamycin, while OVCAR-3 are resistant to adriamycin, cisplatin and melphalan. These cell lines express androgens, estrogens and progesterone receptors. When SKOV-3 or OVCAR-3 cells are subcutaneously implanted in nude mice, SCID mice, a moderately differentiated tumor develops, and the resulting model resembles primary ovarian adenocarcinoma in humans.
# as §1, §2, §3
# (§8) TGI: The mean concentration that causes 100% inhibition of cell growth (Total Growth Inhibition). […]
# [3] = system: SKOV-3 human ovarian cancer cell line; experiment: MTT cytostatic-cytotoxic activity, SKOV-3; details: for GI50 / pIC50: Homo sapiens, SK-OV-3, SKOV-3, 48 h treatment; for pIC50: kills 50% of the cells; for TGI: SKOV-3, 48 h treatment
# Method: as §6, §7, §1, §2, §3, §8
# [4] = system: UWB1.289 human ovarian cancer cell line (mutant BRCA1); experiment: MTT cytostatic-cytotoxic activity, UWB1.289; details: for GI50 / pIC50: Homo sapiens; for GI50: UWB1289, 48 h; for GI50 / TGI: UWB1.289, 48 h treatment; for pIC50: UWB1289, UWB1.289, 48 h treatment, kills 50% of the cells
# Method: Also, UWB1.289 cells have mutated the p53 tumor suppressor gene and positive Wilms' tumor protein (WT) expression, have no functional BRCA1 gene and are positive for the expression of cytokeratin 7 (CK-7), calretinin and Wilms' tumor protein (WT). Finally they are sensitive to ionizing radiation.
# as §1, §2, §3, §4, §5
# [5] = system: MCF-7 human breast cancer cell line; experiment: MTT cytostatic-cytotoxic activity, MCF-7; details: for GI50 / pIC50: Homo sapiens; for GI50: MCF7, 48 h; for GI50 / TGI: MCF-7, 48 h treatment; for pIC50: MCF7, MCF-7, 48 h treatment, kills 50% of the cells
# [6] = system: T-47D human breast cancer cell line; experiment: MTT cytostatic-cytotoxic activity, T-47D; details: 48 h treatment; for GI50 / pIC50: Homo sapiens, T47D; for GI50: 48 h; for pIC50: kills 50% of the cells
SMILES,GI50 [1],pIC50 [1],TGI [1],GI50 [2],pIC50 [2],TGI [2],GI50 [3],pIC50 [3],TGI [3],GI50 [4],pIC50 [4],TGI [4],GI50 [5],pIC50 [5],TGI [5],TGI [6],GI50 [6],pIC50 [6]
"COc1cc(Cc2nnc3sc(/C=C/c4ccc(F)cc4)nn23)c(S(=O)(=O)N(C)C)cc1OC [TS25, 3-[2-(N,N-dimethylsulfamoyl)-4,5-dimethoxybenzyl]-6-(E)-4-fluorostyryl-1,2,4-triazolo[3,4-b]-1,3,4-thiazole]",5 µM,4.44,12 µM,24 µM,4.03,68 µM,18 µM,4.10,52 µM,2 µM,4.22,4 µM,16 µM,4.07,51 µM,34 µM,12 µM,4.12
"COc1ccc(Cc2nn3c(Cc4cc(OC)c(OC)cc4S(=O)(=O)N(C)C)nnc3s2)cc1 [TS50, 3-[2-(N,N-dimethylsulfamoyl)-4,5-dimethoxybenzyl]-6-(4-methoxybenzyl)-1,2,4-triazolo[3,4-b]-1,3,4-thiazole]",16 µM,< 4.00,>100 µM,5 µM,< 4.00,86 µM,6 µM,< 4.00,>100 µM,30 µM,< 4.00,>100 µM,40 µM,< 4.00,>100 µM,>100 µM,28 µM,< 4.00
"COc1cc(Cc2nnc3sc(-c4ccc(Cl)cc4)nn23)c(S(=O)(=O)N(C)C)cc1OC [TS63, 3-[2-(N,N-dimethylsulfamoyl)-4,5-dimethoxybenzyl]-6-(4-chlorophenyl)-1,2,4-triazolo[3,4-b]-1,3,4-thiazole]",8 µM,< 4.00,64 µM,3 µM,< 4.00,32 µM,8 µM,< 4.00,38 µM,30 µM,< 4.00,50 µM,22 µM,< 4.00,50 µM,55 µM,27 µM,< 4.00
"COc1cc(Cc2nnc3sc(-c4ccccc4)nn23)c(S(=O)(=O)N(C)C)cc1OC [TS167, 3-[2-(N,N-dimethylsulfamoyI)-4,5-dimethoxy-benzyl]-6-phenyl-1,2,4-triazolo[3,4-b]-1,3,4-thiazole]",76 µM,< 4.00,>100 µM,65 µM,< 4.00,>100 µM,80 µM,< 4.00,>100 µM,56 µM,< 4.00,>100 µM,65 µM,< 4.00,>100 µM,>100 µM,52 µM,< 4.00
"COc1cc(Cc2nnc3sc(-c4ccccc4N)nn23)c(S(=O)(=O)N(C)C)cc1OC [TS57, 3-[2-(N,N-dimethylosulfamoyl)-4,5-dimethoxybenzyl]-6-(2-aminophenyl)-1,2,4-triazolo[3,4-b]-1,3,4-thiazole]",85 µM,< 4.00,>100 µM,95 µM,< 4.00,>100 µM,> 100 µM,< 4.00,>100 µM,> 100 µM,< 4.00,>100 µM,> 100 µM,< 4.00,>100 µM,>100 µM,> 100 µM,< 4.00
"COc1cc(Cc2nnc3sc(Cc4ccccc4)nn23)c(S(=O)(=O)N(C)C)cc1OC [TS62, 3-[2-(N,N-dimethylsulfamoyl)-4,5-dimethoxybenzyl]-6-benzyl-1,2,4-triazolo[3,4-b]-1,3,4-thiazole]",8 µM,< 4.00,64 µM,8 µM,< 4.00,68 µM,12 µM,< 4.00,56 µM,13 µM,< 4.00,>100 µM,18 µM,< 4.00,>100 µM,>100 µM,24 µM,< 4.00
"COc1cc(Cc2nnc3sc(-c4ccc(N)cc4)nn23)c(S(=O)(=O)N(C)C)cc1OC [TS71, 3-[2-(N,N-dimethylsulfamoyl)-4,5-dimethoxybenzyl]-6-(4-aminophenyl)-1,2,4-triazolo[3,4-b]-1,3,4-thiazole]",90 µM,< 4.00,>100 µM,97 µM,< 4.00,>100 µM,> 100 µM,< 4.00,>100 µM,> 100 µM,< 4.00,>100 µM,> 100 µM,< 4.00,>100 µM,>100 µM,> 100 µM,< 4.00
